Results as given in patent US11952554B2, “Alkyl polyglycoside-containing cleaning formulations for chemically sensitive individuals” (Living Clean NZ, Ltd., priority 2021, dated 2024).
Values belong to the compound of their own block, whether it stands above or below them.

Tests used:
[1] = tested on: chemically sensitive individuals (MCS); design: species or system human; conditions: in vivo
Experimental: Once candidate ingredients are identified and tested as described above, they are evaluated for use in potential cleaning formulations using a blind study protocol. The blind studies used in the course of the instant work were comprised of a specially selected panel of volunteers. […] A panel comprised of just such individuals was used for many aspects of the studies conducted herein. […] See E. A. Krusemark and W. Li, “Enhanced olfactory sensory perception of threat in anxiety: An event-related fMRI study,” Chemosensory Perception, 5 (2012) 37-45; the article in its entirely is herein incorporated by reference.
In the course of the instant work, at least one individual with MCS was used to rank prospective ingredients for acceptability in cleaning formulations based upon sensory responses, which included olfactory as well as skin contact. Instrumental analyses were then implemented to correlate results with sensory ratings from the human panel, and to identify and/or quantify the chemicals detected and deemed to be potentially harmful to humans. Ingredients that were deemed acceptable by the human panel and the instrumental analyses were then used as raw materials for cleaning products described herein. It is believed that this level of pre-screening and testing represents a first in the world for consumer cleaning product formulations work, and has provided an unprecedented level of safety testing for consumer products. Accordingly, in one aspect of the technology newly presented and described herein, a method for providing cleaning formulations for use by the general public and chemically-sensitized individuals, in particular, involves:
Without being bound by theory, it is believed that this phenomenon is due to the non-exact nature of the BCI or RCI measurement (±3% by weight) vis-à-vis the low amounts of contaminants, perhaps much less than 1% by weight, that are present in certain ingredients. To test this hypothesis, a number of chemically sensitive individuals assessed four types of alkyl polyglucosides, or APGs, from three manufacturers, all of which have an apparent BCI/RCI of 100%. Each of the APG candidates was rated on a 3-point index: Acceptable, Marginal, and Unacceptable. The Marginal and Unacceptable candidates were then analyzed for the presence of trace contaminants.
In the manufacture of surfactants, it can be assumed that a small amount, albeit a significant one, of feedstock remains unreacted. This amount can often be less than 1% by weight, but to individuals who are sensitive to such species, the impact can be significant. […] As such, a number of raw materials were evaluated by a number of chemically sensitive individuals for acceptability using the same scale as above.

[2] = cited from earlier work

Compound: C8-10 alkyl polyglucoside
Acceptability Rating [1]: Unacceptable

Compound: CCCCCCCCOS(=O)(=O)[O-].[Na+] [Sodium octyl sulfate (from bio-basis), Sodium octyl sulfate]
Acceptability Rating [1]: Unacceptable

Compound: ClC(Cl)Cl [Trichloromethane (chloroform), Trichloromethane]
CAA-HAP listing ([2]; Clean Air Act-Hazardous Air Pollutant): ✓
CAA-TFS listing ([2]; Clean Air Act-Toxic and Flammable Substances for Accidental Release Prevention): ✓
CWA listing ([2]; Clean Water Act-Priority Pollutant): ✓
CERCLA listing ([2]; Comprehensive Environmental Response, Compensation, and Liability Act-Hazardous Substance): ✓
EPCRA listing ([2]; Emergency Planning & Community Right to Know Act-Toxic Release Inventory Chemical): ✓
OSHA listing ([2]; Occupational Safety and Health Act-Air Contaminants): ✓
RCRA listing ([2]; Resource Conservation and Recovery Act-Hazardous Constituents): ✓

Continued, values first:

Acceptability Rating [1]: Acceptable-
Compound: C10-16 alkyl polyglucoside

Acceptability Rating [1]: Acceptable
Compound: Sodium coco sulfate
